Results reported in patent publication US20230172206A1 (BASF SE, priority 2020, published 2023).

What was measured:
[1] = tested on: Phakopsora pachyrhizi (F129L); assay: Protective control of soybean rust on soybeans (PHAKPA P6); format: in vivo; conditions: for % PHAKPA (F129L) Disease level P6 at 4 ppm: protective P6, 4 ppm; for % PHAKPA (F129L) Disease level P6 at 16 ppm: protective P6, 16 ppm
[2] = tested on: Phakopsora pachyrhizi (F129L); assay: Protective control of soybean rust on soybeans (PHAKPA P2); format: in vivo; conditions: for % PHAKPA (F129L) Disease level P2 at 4 ppm: protective P2, 4 ppm; for % PHAKPA (F129L) Disease level P2 at 16 ppm: protective P2, 16 ppm

Row | SMILES | % PHAKPA (F129L) Disease level P6 at 4 ppm ([1]; soybean rust F129L isolate) [%] | % PHAKPA (F129L) Disease level P6 at 16 ppm ([1]; soybean rust F129L isolate) [%] | % PHAKPA (F129L) Disease level P2 at 4 ppm ([2]; soybean rust F129L isolate) [%] | % PHAKPA (F129L) Disease level P2 at 16 ppm ([2]; soybean rust F129L isolate) [%] | % PHAKPA (F129L) Disease level P6 at 4 ppm ([1]; F129L isolate) [%] | % PHAKPA (F129L) Disease level P6 at 16 ppm ([1]; F129L isolate) [%] | % PHAKPA (F129L) Disease level P2 at 4 ppm ([2]; F129L isolate) [%] | % PHAKPA (F129L) Disease level P2 at 16 ppm ([2]; F129L isolate) [%] | also measured
1 | C#Cc1cc(F)c(F)c(/C(C)=N/OCc2c(C)cccc2/C(=N\OC)C(=O)OC)c1 [compound 242] | 87 | 20 | 87 | 10 |  |  |  |  | 
2 | CNC(=O)/C(=N/OC)c1cccc(C)c1CO/N=C(\C)c1ccc(OC(F)(F)F)cc1OC(F)(F)F [compound 349] | 97 | 35 | 97 | 50 |  |  |  |  | 
3 | CO/C=C(/C(=O)OC)c1cccc(C)c1CO/N=C(\C)c1cccc(C(F)(F)F)c1 [compound 231] | 2 | 0 | 0 | 0 |  |  |  |  | PHAKPA (F129L) Disease level (%) P6 at 4 ppm ([1]; protective, inoculation six days after spraying, 4 ppm, % diseased leaf area): 2%; PHAKPA (F129L) Disease level (%) P2 at 4 ppm ([2]; protective, inoculation 2 days after spraying, 4 ppm, % diseased leaf area): 0%
4 | CO/N=C(/C(=O)OC)c1cccc(C)c1CO/N=C(\C)c1ccc(Cl)cc1C(F)(F)F [compound 304] | 100 | 37 | 53 | 28 |  |  |  |  | 
5 | CNC(=O)/C(=N/OC)c1cccc(Br)c1CO/N=C(\C)c1ccccc1 [compound 396] |  |  |  |  | 4 | 0 | 3 | 0 | 
6 | CNC(=O)/C(=N/OC)c1cccc(C)c1CO/N=C(\C)c1ccc(Br)cc1C(F)(F)F [compound 258] | 73 | 8 | 32 | 7 |  |  |  |  | 
7 | CO/N=C(/C(=O)OC)c1cccc(C)c1CO/N=C(\C)c1cccc(Cl)c1C(F)(F)F [compound 421] |  |  |  |  | 87 | 57 | 100 | 33 | 
8 | CNC(=O)/C(=N/OC)c1cccc(C)c1CO/N=C(\CC(F)(F)F)c1ccccc1C [compound 393] |  |  |  |  | 93 | 42 | 93 | 55 | 
9 | CNC(=O)/C(=N/OC)c1cccc(C)c1CO/N=C(\C)c1c(F)ccc(F)c1OC(F)(F)F [compound 346] | 5 | 0 | 4 | 0 |  |  |  |  | 
10 | CO/N=C(/C(=O)OC)c1cccc(C)c1CO/N=C(\C)c1cc(Cl)ccc1C(F)(F)F [compound 251] | 80 | 80 | 80 | 80 |  |  |  |  | 
11 | CO/N=C(/C(=O)OC)c1cccc(C)c1CO/N=C(\C)c1c(F)cc(F)cc1OC(F)(F)F [compound 361] | 88 | 31 | 80 | 18 |  |  |  |  | 
12 | CO/C=C(/C(=O)OC)c1cccc(C)c1CO/N=C(\C)c1c(Cl)ccc(Cl)c1OC(F)(F)F [compound 444] |  |  |  |  | 83 | 53 | 100 | 47 | 
13 | CO/N=C(/C(=O)OC)c1cccc(C)c1CO/N=C(\C)c1ccc(-c2ccccc2)cc1C(F)(F)F [compound 414] |  |  |  |  | 53 | 15 | 53 | 9 | 
14 | CNC(=O)/C(=N/OC)c1cccc(C)c1CO/N=C(\C)c1ccc(-c2ccc(F)cc2)cc1C(F)(F)F [compound 426] |  |  |  |  | 27 | 10 | 7 | 1 | 
15 | CNC(=O)/C(=N/OC)c1ccccc1CO/N=C(\C)c1cc(F)ccc1F [reference compound] |  |  |  |  |  |  |  |  | PHAKPA (F129L) Disease level (%) P6 at 16 ppm ([1]; protective, inoculation six days after spraying, 16 ppm, % diseased leaf area): 22%; PHAKPA (F129L) Disease level (%) P2 at 16 ppm ([2]; protective, inoculation 2 days after spraying, 16 ppm, % diseased leaf area): 1%
16 | CO/N=C(/C(=O)OC)c1cccc(C)c1CO/N=C(\C)c1c(F)ccc(F)c1OC(F)(F)F [compound 366] | 83 | 12 | 53 | 13 |  |  |  |  | 
17 | CNC(=O)/C(=N/OC)c1cccc(C)c1CO/N=C(\C)c1c(F)cccc1C(F)(F)F [compound 345] | 32 | 1 | 22 | 1 |  |  |  |  | 
